This is an account of results in PMC6099400, “A New Benzophenone C-Glucoside and Other Constituents of Pseuduvaria fragrans and Their α-Glucosidase Inhibitory Activity” (Molecules : A Journal of Synthetic Chemistry and Natural …, 2018).

Molecules are shown by their SMILES. Read-outs that look alike come from different tables or passages of the source.

Experiment [1] has as its target T1, Yeast α-glucosidase enzyme (Saccharomyces cerevisiae, UniProt P53341). Particulars: earlier report; cited from earlier work.
Experiment [2] addresses T1, Yeast α-glucosidase enzyme. Briefly: Kinetic study of α-glucosidase inhibition (Lineweaver-Burk and secondary plots). The experiment is classed as biochemical. Particulars: for mode of enzyme inhibition: Lineweaver-Burk plots; for Slope: Lineweaver-Burk. As to the method:
Lineweaver-Burk plots of the inverted values of velocity (1/V) versus the inverted values of substrate concentration (1/[S]) were prepared. […] To determine the Ki of each amide, we constructed a secondary plot by replotting the reciprocal of Km (1/Km) against inhibitor concentration.
Vacuum liquid chromatography (VLC) and column chromatography (CC) were performed on silica gel 60 (40–63 μm, Merck, Darmstadt, Germany), silica gel 60 (63–200 μm, Merck, Darmstadt, Germany) or Sephadex LH-20 (Pharmacia, Piscataway, NJ, USA) or Diaion HP20 (Mitsubishi Chemical, Tokyo, Japan). For preparative HPLC, a Shim-pack Prep-ODS (No.2025820) column (Shimadzu, Tokyo, Japan), with isocratic 50% methanol in water, SPD-10A UV-Vis detector (Shimadzu, Tokyo, Japan), and flow rate 1 mL/min, was used. NMR spectra were obtained with a Bruker Avance DPX-300 FT-NMR spectrometer (Brucker Corporation, Billerica, MA, USA). High-resolution electrospray ionization mass spectra (HR-ESI-MS) were recorded with a Bruker micro TOF mass spectrometer (Bruker Daltonics, Billerica, MA, USA). Optical rotations were obtained with a PerkinElmer 341 polarimeter (PerkinElmer, Boston, MA, USA). UV spectra were measured on an Agilent Technologies Cary 60 UV-Vis (Agilent, Santa Clara, CA, USA), and IR spectra (Agilent, Santa Clara, CA, USA) were recorded on a Perkin-Elmer FT-IR 1760x spectrophotometer (PerkinElmer, Boston, MA, USA). […] Absorbance in 96-well plates was measured using a microplate reader (Wallac1420 Multilevel counter, Victor3, PerkinElmer).
The kinetic assay of enzyme inhibition was done in a 96-well plate. The enzyme kinetics parameters (Km and Vmax) were obtained by analyzing the double reciprocal Lineweaver-Burk plot (1/V vs. 1/[S]). Each experiment was carried out by varying the concentration of pNPG (2.0, 1.0, 0.5, 0.25, 0.125 mM) in the absence and presence of different concentrations of the test sample. The reaction was monitored at 405 nm by a microplate reader every 5 min for a total time of 30 min. Each experiment was performed in triplicate. […] The inhibition constant (Ki) of each compound was then calculated from the intersection on the abscissa.

T1 sequence (P53341 whole entry): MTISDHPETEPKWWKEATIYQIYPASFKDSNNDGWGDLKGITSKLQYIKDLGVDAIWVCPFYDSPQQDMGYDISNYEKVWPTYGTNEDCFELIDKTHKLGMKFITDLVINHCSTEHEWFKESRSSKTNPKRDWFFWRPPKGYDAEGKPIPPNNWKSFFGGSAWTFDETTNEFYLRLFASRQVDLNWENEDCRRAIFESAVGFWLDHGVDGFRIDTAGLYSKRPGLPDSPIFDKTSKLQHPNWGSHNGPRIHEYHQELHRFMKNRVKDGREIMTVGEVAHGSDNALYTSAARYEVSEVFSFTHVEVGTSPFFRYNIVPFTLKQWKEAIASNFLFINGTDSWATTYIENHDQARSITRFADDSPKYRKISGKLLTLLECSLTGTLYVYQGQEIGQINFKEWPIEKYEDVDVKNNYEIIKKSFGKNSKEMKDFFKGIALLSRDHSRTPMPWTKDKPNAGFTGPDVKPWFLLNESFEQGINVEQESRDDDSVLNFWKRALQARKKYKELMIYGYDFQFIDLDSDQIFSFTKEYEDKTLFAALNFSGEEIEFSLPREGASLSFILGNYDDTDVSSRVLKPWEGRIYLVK

Regarding `O=C(/C=C/c1ccc(O)cc1)NCCc1ccc(O)cc1` [Compound 6, N-trans-coumaroyltyramine], the “mode of enzyme inhibition” value in experiment [1] is “uncompetitive α-glucosidase inhibition”; in experiment [2], “uncompetitive inhibitors”. Besides, the Slope was found to be 34.55 in experiment [2] (inhibitor dose 0.5 µM), 34.67 in experiment [2] (inhibitor dose 1.0 µM) and 35.56 in experiment [2] (inhibitor dose 2.0 µM). Besides, the results for the Vmax in experiment [2] (inhibitor dose 0.5 µM), in experiment [2] (inhibitor dose 1.0 µM) and in experiment [2] (inhibitor dose 2.0 µM) were 0.0077 ΔA405/min, 0.0030 ΔA405/min and 0.0018 ΔA405/min, respectively.

Take `COc1cc(/C=C/C(=O)NCCc2ccc(O)cc2)ccc1O` [Compound 7, N-trans-feruloyltyramine]: the “mode of enzyme inhibition” value in experiment [2] was “uncompetitive inhibitors”. Besides, the Slope came out at 36.62 in experiment [2] (inhibitor dose 2.0 µM), 37.56 in experiment [2] (inhibitor dose 4.0 µM) and 36.51 in experiment [2] (inhibitor dose 8.0 µM). Also, the Vmax is 0.0072 ΔA405/min in experiment [2] (inhibitor dose 2.0 µM), 0.0044 ΔA405/min in experiment [2] (inhibitor dose 4.0 µM) and 0.0027 ΔA405/min in experiment [2] (inhibitor dose 8.0 µM).

For `C[C@H]1O[C@H](O[C@H]2[C@H](O)[C@@H](O)[C@@H](O[C@H]3[C@H](O)[C@@H](O)C(O)O[C@@H]3CO)O[C@@H]2CO)[C@H](O)[C@@H](O)[C@@H]1N[C@H]1C=C(CO)[C@@H](O)[C@H](O)[C@H]1O` (stereo partly shown) [acarbose, reference compound], the “mode of enzyme inhibition” value in experiment [2] is given as “competitive inhibition”.
